Assay [1] addresses 5-hydroxytryptamine receptor 2A (Homo sapiens, UniProt P28223). Description: Displacement of [3H]ketanserin from 5HT2A receptor (unknown origin) expressed in HEK293T cell membranes. Background: Displacement assays read how much labelled ligand stays bound in the presence of the test substance.
The target in assay [2] is 5-hydroxytryptamine receptor 2B (Homo sapiens, UniProt P41595). Nature of the assay: Displacement of [3H]LSD from 5HT2B receptor (unknown origin) expressed in HEK293 cell membranes.
Chain of 5-hydroxytryptamine receptor 2B (P41595 whole entry): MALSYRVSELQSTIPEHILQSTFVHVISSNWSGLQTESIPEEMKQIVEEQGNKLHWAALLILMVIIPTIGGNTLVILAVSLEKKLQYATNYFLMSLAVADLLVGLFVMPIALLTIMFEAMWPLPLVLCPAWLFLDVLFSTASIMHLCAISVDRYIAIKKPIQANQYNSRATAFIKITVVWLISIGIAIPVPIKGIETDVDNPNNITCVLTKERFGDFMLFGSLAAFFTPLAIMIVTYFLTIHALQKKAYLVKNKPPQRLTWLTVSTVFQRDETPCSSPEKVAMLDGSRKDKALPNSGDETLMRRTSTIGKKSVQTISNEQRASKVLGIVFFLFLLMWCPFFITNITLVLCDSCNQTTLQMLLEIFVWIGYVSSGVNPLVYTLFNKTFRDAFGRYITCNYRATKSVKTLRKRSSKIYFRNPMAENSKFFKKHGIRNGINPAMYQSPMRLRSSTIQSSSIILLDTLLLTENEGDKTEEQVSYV
Assay [3] has as its target T1, 5-hydroxytryptamine receptor 2C (Homo sapiens, UniProt P28335).
T1 sequence (P28335 whole entry): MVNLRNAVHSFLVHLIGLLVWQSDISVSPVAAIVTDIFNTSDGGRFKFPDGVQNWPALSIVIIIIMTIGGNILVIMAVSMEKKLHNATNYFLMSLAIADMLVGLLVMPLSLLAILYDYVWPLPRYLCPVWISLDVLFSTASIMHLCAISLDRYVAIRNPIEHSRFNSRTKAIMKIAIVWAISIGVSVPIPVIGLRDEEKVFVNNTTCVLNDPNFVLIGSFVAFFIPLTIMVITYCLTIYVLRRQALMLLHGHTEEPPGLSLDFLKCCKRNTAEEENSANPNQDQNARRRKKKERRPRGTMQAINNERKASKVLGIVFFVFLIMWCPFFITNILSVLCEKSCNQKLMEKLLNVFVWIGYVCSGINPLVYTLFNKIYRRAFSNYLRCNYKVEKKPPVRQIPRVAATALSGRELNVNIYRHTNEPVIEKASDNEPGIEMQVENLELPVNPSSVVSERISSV
Nature of the assay: Displacement of [3H]mesulergine from 5HT2C receptor (unknown origin) expressed in HEK293T cell membranes.

For assay [4], the species on record is Homo sapiens. Nature of the assay: Selectivity ratio of Ki for displacement of [3H]LSD from 5HT2B receptor (unknown origin) expressed in HEK293 cell membranes to Ki for displacement of [3H]mesulergine from 5HT2C receptor (unknown origin) expressed in HEK293T cell membranes.
Assay [5] has as its target Serotonin 2 receptors; 5-HT2a & 5-HT2c (Homo sapiens) (UniProt P28223+P28335). Nature of the assay: Selectivity ratio of Ki for displacement of [3H]ketanserin from 5HT2A receptor (unknown origin) expressed in HEK293T cell membranes to Ki for displacement of [3H]mesulergine from 5HT2C receptor (unknown origin) expressed in HEK293T cell membranes.
Assay [6] is described as follows: Selectivity ratio of Ki for displacement of [3H]DOI from recombinant human 5HT2B receptor expressed in HEK293T cell membranes to Ki for displacement of [3H]DOI from recombinant human 5HT2C receptor expressed in HEK293T cell membranes.

pKi: −log10 of the molar value.

Chain of Serotonin 2 receptors; 5-HT2a & 5-HT2c (Homo sapiens) (P28223 whole entry, looked up, one chain of several): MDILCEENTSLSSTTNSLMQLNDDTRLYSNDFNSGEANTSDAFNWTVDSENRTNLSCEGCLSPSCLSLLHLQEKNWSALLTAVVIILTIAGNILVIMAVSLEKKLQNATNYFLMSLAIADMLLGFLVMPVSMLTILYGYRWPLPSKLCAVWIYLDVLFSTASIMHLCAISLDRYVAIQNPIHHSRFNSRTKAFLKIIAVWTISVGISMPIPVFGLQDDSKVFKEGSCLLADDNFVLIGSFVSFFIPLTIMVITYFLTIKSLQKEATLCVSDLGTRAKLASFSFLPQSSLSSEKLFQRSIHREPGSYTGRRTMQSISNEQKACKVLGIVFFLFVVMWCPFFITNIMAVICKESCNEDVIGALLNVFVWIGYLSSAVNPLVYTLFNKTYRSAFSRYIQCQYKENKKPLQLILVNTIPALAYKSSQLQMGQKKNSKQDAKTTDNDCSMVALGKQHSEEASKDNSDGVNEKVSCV
Chain of 5-hydroxytryptamine receptor 2A (P28223 whole entry): as the sequence (P28223 whole entry, looked up, one chain of several) above

The pKi is the Ki on a negative log10 scale, so that one unit is a factor of ten. For the compound `COc1cc2c3c(c1)-c1c(cccc1OC(=O)c1ccc(F)cc1)C[C@H]3N(C)CC2`, the negative-log Ki (pKi) in assay [1] was 6.35; in assay [2] it was 6.99; in assay [3], 7.49. The Ratio Ki in assay [4] is 3.2; in assay [5] it was 14.
As to `COc1cc2c3c(c1)-c1c(cccc1OCc1ccc(F)cc1)C[C@H]3N(C)CC2`, the figures for the pKi in assay [1], in assay [2] and in assay [3] were 5.64, 5.57 and < 5.00, respectively.
Regarding `CCCN1CCc2cc(OC)cc3c2[C@H]1Cc1cccc(OCCF)c1-3`, the negative-log Ki (pKi) is < 5.00 in assay [1], 5.52 in assay [2] and < 5.00 in assay [3].
As for `COc1cc2c3c(c1)-c1c(cccc1OCCF)C[C@H]3N(C)CC2`, the pKi is 5.94 in assay [1], 6.26 in assay [2] and 6.46 in assay [3]. The Ratio Ki is 1.6 in assay [4] and 3.3 in assay [5].
Take `CCCN1CCc2cc(OC)cc3c2[C@H]1Cc1cccc(OCCCF)c1-3`: the negative logarithm of the Ki (pKi) in assay [1], in assay [2] and in assay [3] was < 5.00 throughout.
As to `C[C@H]1CNCCc2ccc(Cl)cc21` [LORCASERIN], the pKi in assay [6] is 7.92.
For the compound `COc1cc2c3c(c1)-c1c(cccc1OCCCF)C[C@H]3N(C)CC2`, the negative-log Ki (pKi) in assay [1] is 6.36; in assay [2], 6.37; in assay [3], 6.47. The Ratio Ki in assay [4] stood at 1.2; in assay [5], 1.3.
Regarding `CCCN1CCc2cc(OC)cc3c2[C@H]1Cc1cccc(OCc2ccc(F)cc2)c1-3`, the negative-log Ki (pKi) in assay [1], in assay [2] and in assay [3] was < 5.00 each time.
`CCCN1CCc2cc(OC)cc3c2[C@H]1Cc1cccc(OC(=O)c2ccc(F)cc2)c1-3`: the pKi in assay [1] was 6.38; in assay [2] it was 6.97; in assay [3], 7.62. The Ratio Ki in assay [4] turned out to be 4.4; in assay [5], 17.
